Drawing on ChEMBL document CHEMBL1121515 (J Med Chem, 1980), this text covers Activity, CAR and LD50 for 12 compounds.

Activity calls are given as the source filed them. The rule behind the calls is not given here.

For data set [1], the species on record is Mus musculus. Kind of data set: Relative CNS activity of compound was measured in mice; (-) </= […]. It is filed as functional, Central nervous system.
For data set [2], the system named is Rattus norvegicus. The experiment in a line: Conditioned avoidance response (CAR) was measured in rats at 20 mg/kg; A = active. The data set is classed as functional, organism-based. Details: dose 20 mg/kg.
The nature of data set [3]: Lethal dose was measured in mice 0.5 hr post intraperitoneal administration. The data set is classed as toxicity, organism-based. The following applies: mouse, in vivo, ip.
For data set [4], the system named is Rattus norvegicus. Kind of data set: Conditioned avoidance response (CAR) was measured in rats at 10 mg/kg; I = inactive. It is filed as functional, organism-based. Details: dose 10 mg/kg.
Data set [5] relates to Rattus norvegicus. Kind of data set: Conditioned avoidance response (CAR) was measured in rats at 20 mg/kg doses; I = inactive. Further details: dose 20 mg/kg. The data set is classed as functional, organism-based.
The test system of data set [6] is Rattus norvegicus. The experiment in a line: Conditioned avoidance response (CAR) was measured in rats at 5 mg/kg doses; I = inactive. Further details: dose 5 mg/kg. It is filed as functional, organism-based.
For data set [7], the species on record is Rattus norvegicus. The experiment in a line: Conditioned avoidance response (CAR) was measured in rats; Inactive. It is filed as functional, organism-based.
For data set [8], the species on record is Rattus norvegicus. The experiment in a line: Conditioned avoidance response (CAR) was measured in rats; I = inactive. It is filed as functional, organism-based.
The subject of data set [9] is Rattus norvegicus. The experiment in a line: Conditioned avoidance response (CAR) was measured in rats at 40 mg/kg; A = active. The data set is classed as functional, organism-based. Further details: dose 40 mg/kg.
Data set [10] is filed under the species Mus musculus. Kind of data set: Relative CNS activity of compound was measured in mice (for activity in 2-3 assays). The data set is classed as functional, organism-based. The following applies: Central nervous system.
In data set [11] the test system is Rattus norvegicus. The experiment in a line: Conditioned avoidance response (CAR) was measured in rats at 10 mg/kg;I = inactive. It is filed as functional, organism-based. Details: dose 10 mg/kg.
Data set [12] relates to Rattus norvegicus. The experiment in a line: Conditioned avoidance response (CAR) was measured in rats at 10 mg/kg; Inactive. It is filed as functional, organism-based. Details: dose 10 mg/kg.
For data set [13], the system named is Rattus norvegicus. The experiment in a line: Conditioned avoidance response (CAR) was measured in rats at 40 mg/kg; Active. The data set is classed as functional, organism-based. Further details: dose 40 mg/kg.
The species named for data set [14] is Mus musculus. The experiment in a line: Relative CNS activity of compound was measured in mice (++ =for activity in 4-5 assays). It is filed as functional, organism-based. The following applies: Central nervous system.
In data set [15] the test system is Rattus norvegicus. Kind of data set: Conditioned avoidance response (CAR) was measured in rats at 40 mg/kg;A = active. It is filed as functional, organism-based. Details: dose 40 mg/kg.
The species entered for data set [16] is Mus musculus. Kind of data set: Relative CNS activity of compound was measured in mice (+++ =for activity in > 6 assays). The following applies: Central nervous system. The data set is classed as functional, organism-based.

For orientation: LD50 means the dose expected to kill half of the subjects tested. In the case of `Cl.c1ccc(-c2cccc3c2CNCC3)cc1`, in the data set filed under Mus musculus [1], the Activity result is recorded as “<=1”. The CAR result in the data set on Rattus norvegicus [2] is “Active”. Further, in data set [3], the LD50 at 0.5 h came to 82 mg/kg. Besides, the CAR entry in the data set with Rattus norvegicus [4] is “inactive”.

Turning to `CC1Cc2cccc(-c3ccccc3)c2CN1.Cl` (configuration not stated), the CAR result in the data set on Rattus norvegicus [5] and in the data set with Rattus norvegicus [6] was “inactive” throughout. The Activity entry in the data set listed under Mus musculus [1] is recorded as “<=1”. The same compound came in with an LD50 at 0.5 h in data set [3] of 146 mg/kg.

Turning to `COc1ccccc1-c1cccc2c1CN(Cc1ccccc1)CC2.Cl`, the Activity result in the data set filed under Mus musculus [1] was “<=1”. Also, the 50% lethal dose (LD50) at 0.5 h in data set [3] was more than 160 mg/kg. In the data set filed under Rattus norvegicus [7], the CAR entry was “inactive”.

Take `Cl.c1ccc(CN2CCc3cccc(-c4ccccc4)c3C2)cc1`: the Activity result in the data set listed under Mus musculus [1] is on record as “<=1”. For the same compound, the CAR entry in the data set listed under Rattus norvegicus [8] is “inactive”. Further, the LD50 at 0.5 h in data set [3] was determined as 158 mg/kg.

In the case of `CC1Cc2cccc(-c3ccccc3)c2CN1Cc1ccccc1.Cl` (configuration not stated), the CAR entry in the data set with Rattus norvegicus [9] is “Active”. In data set [3], this compound registered a 50% lethal dose (LD50) at 0.5 h of 227 mg/kg. Besides, the Activity entry in the data set listed under Mus musculus [10] is “Weak activity”. For the same compound, the CAR result with Rattus norvegicus [11] was “inactive”.

For `COc1ccccc1-c1cccc2c1CN(C)CC2.Cl`, the CAR entry in the data set on Rattus norvegicus [12] is “inactive”. Moreover, the Activity result in the data set filed under Mus musculus [1] is reported as “<=1”. Besides, in the data set on Rattus norvegicus [13], the CAR entry is “Active”. The median lethal dose (LD50) at 0.5 h in [3] was determined as 81 mg/kg.

On to `COc1cccc(-c2cccc3c2CNCC3)c1.Cl`, for which, in the data set on Rattus norvegicus [12], the CAR entry was “inactive”. Besides, in the data set with Rattus norvegicus [13], the CAR result is “Active”. The same compound gave an LD50 at 0.5 h in data set [3] of less than 160 mg/kg. For the same compound, the outcome in the data set listed under Mus musculus [14] was Active.

For the compound `CN1CCc2cccc(-c3ccccc3)c2C1.O=C(O)/C=C/C(=O)O`, the CAR entry with Rattus norvegicus [15] is “Active”. Moreover, the Activity entry in the data set filed under Mus musculus [16] was “Weak activity”. The LD50 at 0.5 h in data set [3] is less than 320 mg/kg. The CAR result in the data set with Rattus norvegicus [11] was “inactive”.

As for `COc1ccccc1-c1cccc2c1CNCC2.Cl`, in [3], the median lethal dose (LD50) at 0.5 h was determined as 81 mg/kg. In addition, the outcome in the data set filed under Mus musculus [14] was Active.

For `COc1cccc(-c2cccc3c2CN(C)CC3)c1.Cl`, the CAR result in the data set on Rattus norvegicus [12] is “inactive”. The CAR entry in the data set on Rattus norvegicus [13] is “Active”. Moreover, the LD50 at 0.5 h in [3] was 156 mg/kg. For the same compound, the Activity result in the data set listed under Mus musculus [10] was “Weak activity”.

As to `COc1cccc(-c2cccc3c2CN(Cc2ccccc2)CC3)c1.Cl`, the Activity result in the data set listed under Mus musculus [1] is reported as “<=1”. Moreover, in data set [3], the median lethal dose (LD50) at 0.5 h was more than 320 mg/kg. For the same compound, in the data set listed under Rattus norvegicus [7], the CAR result was “inactive”.

Turning to `Br.CC1Cc2cccc(-c3ccccc3)c2CN1C` (configuration not stated), in the data set listed under Rattus norvegicus [8], the CAR result was “inactive”. The LD50 at 0.5 h in data set [3] was less than 320 mg/kg. In the data set listed under Mus musculus [14], the result was Active.
